Measured values taken from US6355799B1, “Substituted benzene compounds, process for their preparation, and herbicidal and defoliant compositions containing them” (ISK Americas Incorporated, priority 1997, dated 2002).

Key:
Type in all cases: in vivo
[1] = test system: upland rice (Oryza sp., var. Tebonnet, RICE); assay: Pre-emerge test, crop safety; settings: for Pre-emerge phytotoxicity rating (0-100), crop damage, RICE: rated 14 days after application, 0 = no damage, 100 = complete death; for phytotoxicity rating RICE (crop damage): pre-emerge, 14 days after application, scale 0-100
Summary of the method: (§1)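 Fourteen days after spraying, crop and weed injury was graded visually from 0, no effect, to 100, every plant dead. Test substances were dissolved in acetone and applied at 15–1000 g ai/ha with a flat-fan nozzle. Application was either pre-emergence, one day after sowing, or post-emergence at the 2–3 leaf stage.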

[2] = test system: field corn (Zea mays L., var. Dekalb 535, CORN); assay: Pre-emerge test, crop safety; settings: for Pre-emerge phytotoxicity rating (0-100), crop damage, CORN: rated 14 days after application, 0 = no damage, 100 = complete death; for phytotoxicity rating CORN (crop damage): pre-emerge, 14 days after application, scale 0-100
Summary of the method: as §1

[3] = test system: upland rice (Oryza sp., var. Tebonnet, RICE); assay: Post-emerge test, crop safety; settings: post-emerge, 14 days after application, rating scale 0-100
Summary of the method: (§2)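 Compounds in acetone were track-sprayed at 15-1000 g ai/ha (187 l/ha) on sandy loam pots: pre-emerge one day after seeding, post-emerge at 2-3 leaf stage with 0.25% v/v non-ionic surfactant. Phytotoxicity was rated 14 days later on a 0 (no damage) to 100 (complete death) scale.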

[4] = test system: field corn (Zea mays L., var. Dekalb 535, CORN); assay: Post-emerge test, crop safety; settings: post-emerge, 14 days after application, rating scale 0-100
Summary of the method: as §2

[5] = test system: velvetleaf (Abutilon theophrasti, ABUTH); assay: Pre-emerge test, greenhouse herbicide activity screening; settings: for Pre-emerge Herbicidal Activity, phytotoxicity rating (0-100), ABUTH: rated 14 days after application, 0 = no damage, 100 = complete death; for phytotoxicity rating ABUTH: pre-emerge, 14 days after application, scale 0-100
Summary of the method: as §2

[6] = test system: lambsquarters (Chenopodium album, CHEAL); assay: as above; settings: for Pre-emerge Herbicidal Activity, phytotoxicity rating (0-100), CHEAL: rated 14 days after application, 0 = no damage, 100 = complete death; for phytotoxicity rating CHEAL: pre-emerge, 14 days after application, scale 0-100
Summary of the method: as §2

[7] = test system: ivyleaf morningglory (Ipomoea hederacea, IPOHE); assay: as above; settings: for Pre-emerge Herbicidal Activity, phytotoxicity rating (0-100), IPOHE: rated 14 days after application, 0 = no damage, 100 = complete death; for phytotoxicity rating IPOHE: pre-emerge, 14 days after application, scale 0-100
Summary of the method: as §2

[8] = test system: johnsongrass (Sorghum halepense, SORHA); assay: as above; settings: for Pre-emerge Herbicidal Activity, phytotoxicity rating (0-100), SORHA: rated 14 days after application, 0 = no damage, 100 = complete death; for phytotoxicity rating SORHA: pre-emerge, 14 days after application, scale 0-100
Summary of the method: as §2

[9] = test system: sicklepod (Cassia obtusifolia, CASOB); assay: as above; settings: for Pre-emerge Herbicidal Activity, phytotoxicity rating (0-100), CASOB: rated 14 days after application, 0 = no damage, 100 = complete death; for phytotoxicity rating CASOB: pre-emerge, 14 days after application, scale 0-100
Summary of the method: as §2

[10] = test system: large crabgrass (Digitaria sanguinalis, DIGSA); assay: as above; settings: for Pre-emerge Herbicidal Activity, phytotoxicity rating (0-100), DIGSA: rated 14 days after application, 0 = no damage, 100 = complete death; for phytotoxicity rating DIGSA: pre-emerge, 14 days after application, scale 0-100
Summary of the method: as §2

[11] = test system: barnyardgrass (Echinochloa crus-galli, ECHCG); assay: as above; settings: for Pre-emerge Herbicidal Activity, phytotoxicity rating (0-100), ECHCG: rated 14 days after application, 0 = no damage, 100 = complete death; for phytotoxicity rating ECHCG: pre-emerge, 14 days after application, scale 0-100
Summary of the method: as §2

[12] = test system: green foxtail (Setaria viridis, SETVI); assay: as above; settings: for Pre-emerge Herbicidal Activity, phytotoxicity rating (0-100), SETVI: rated 14 days after application, 0 = no damage, 100 = complete death; for phytotoxicity rating SETVI: pre-emerge, 14 days after application, scale 0-100
Summary of the method: as §2

[13] = test system: velvetleaf (Abutilon theophrasti, ABUTH); assay: Post-emerge test, greenhouse herbicide activity screening; settings: post-emerge, 14 days after application, rating scale 0-100
Summary of the method: (§3)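 Compounds in acetone were track-sprayed at 187 l/ha, 15–1000 g ai/ha, onto sandy loam pots. Pre-emerge seeds were sown one day before spraying, with surface watering afterwards. Post-emerge plants were at the 2–3 leaf stage and sprayed with 0.25% v/v non-ionic surfactant. Injury was rated 0–100 at 14 days.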

[14] = test system: lambsquarters (Chenopodium album, CHEAL); assay: as above; settings: post-emerge, 14 days after application, rating scale 0-100
Summary of the method: as §3

[15] = test system: ivyleaf morningglory (Ipomoea hederacea, IPOHE); assay: as above; settings: post-emerge, 14 days after application, rating scale 0-100
Summary of the method: as §3

[16] = test system: johnsongrass (Sorghum halepense, SORHA); assay: as above; settings: post-emerge, 14 days after application, rating scale 0-100
Summary of the method: as §3

[17] = test system: sicklepod (Cassia obtusifolia, CASOB); assay: as above; settings: post-emerge, 14 days after application, rating scale 0-100
Summary of the method: as §3

[18] = test system: common ragweed (Ambrosia artemisizfolia L., AMBEL); assay: as above; settings: post-emerge, 14 days after application, rating scale 0-100
Summary of the method: as §3

[19] = test system: large crabgrass (Digitaria sanguinalis, DIGSA); assay: as above; settings: post-emerge, 14 days after application, rating scale 0-100
Summary of the method: as §3

[20] = test system: barnyardgrass (Echinochloa crus-galli, ECHCG); assay: as above; settings: post-emerge, 14 days after application, rating scale 0-100
Summary of the method: as §3

[21] = test system: green foxtail (Setaria viridis, SETVI); assay: as above; settings: post-emerge, 14 days after application, rating scale 0-100
Summary of the method: as §3

[22] = test system: redroot pigweed (Amaranthus retroflexus, AMARE); assay: as above; settings: post-emerge, 14 days after application, rating scale 0-100
Summary of the method: as §3

[23] = test system: redroot pigweed (Amaranthus retroflexus, AMARE); assay: Pre-emerge test, greenhouse herbicide activity screening; settings: for Pre-emerge Herbicidal Activity, phytotoxicity rating (0-100), AMARE: rated 14 days after application, 0 = no damage, 100 = complete death; for phytotoxicity rating AMARE: pre-emerge, 14 days after application, scale 0-100
Summary of the method: as §2

COc1c(Cl)cc(F)c(-n2c(=O)cc(C(F)(F)F)n(C)c2=O)c1NC(=O)c1cnc2ccccc2n1 [2-105]
Pre-emerge phytotoxicity rating (0-100), crop damage, RICE ([1]; 63 g ai/ha): 50 | Pre-emerge phytotoxicity rating (0-100), crop damage, RICE ([1]; 250 g ai/ha): 70 | Pre-emerge phytotoxicity rating (0-100), crop damage, CORN ([2]; 63 g ai/ha): 10 | Pre-emerge phytotoxicity rating (0-100), crop damage, CORN ([2]; 250 g ai/ha): 10 | phytotoxicity rating RICE ([3]; 63 g ai/ha): 0 | phytotoxicity rating RICE ([3]; 250 g ai/ha): 30 | phytotoxicity rating CORN ([4]; 63 g ai/ha): 0 | phytotoxicity rating CORN ([4]; 250 g ai/ha): 10 | Pre-emerge Herbicidal Activity, phytotoxicity rating (0-100), ABUTH ([5]; 63 g ai/ha): 100 | Pre-emerge Herbicidal Activity, phytotoxicity rating (0-100), ABUTH ([5]; 250 g ai/ha): 100 | Pre-emerge Herbicidal Activity, phytotoxicity rating (0-100), CHEAL ([6]; 63 g ai/ha): 100 | Pre-emerge Herbicidal Activity, phytotoxicity rating (0-100), CHEAL ([6]; 250 g ai/ha): 100 | Pre-emerge Herbicidal Activity, phytotoxicity rating (0-100), IPOHE ([7]; 63 g ai/ha): 20 | Pre-emerge Herbicidal Activity, phytotoxicity rating (0-100), IPOHE ([7]; 250 g ai/ha): 95 | Pre-emerge Herbicidal Activity, phytotoxicity rating (0-100), SORHA ([8]; 63 g ai/ha): 40 | Pre-emerge Herbicidal Activity, phytotoxicity rating (0-100), SORHA ([8]; 250 g ai/ha): 95 | Pre-emerge Herbicidal Activity, phytotoxicity rating (0-100), CASOB ([9]; 63 g ai/ha): 30 | Pre-emerge Herbicidal Activity, phytotoxicity rating (0-100), CASOB ([9]; 250 g ai/ha): 60 | Pre-emerge Herbicidal Activity, phytotoxicity rating (0-100), DIGSA ([10]; 63 g ai/ha): 90 | Pre-emerge Herbicidal Activity, phytotoxicity rating (0-100), DIGSA ([10]; 250 g ai/ha): 100 | Pre-emerge Herbicidal Activity, phytotoxicity rating (0-100), ECHCG ([11]; 63 g ai/ha): 20 | Pre-emerge Herbicidal Activity, phytotoxicity rating (0-100), ECHCG ([11]; 250 g ai/ha): 100 | Pre-emerge Herbicidal Activity, phytotoxicity rating (0-100), SETVI ([12]; 63 g ai/ha): 100 | Pre-emerge Herbicidal Activity, phytotoxicity rating (0-100), SETVI ([12]; 250 g ai/ha): 100 | phytotoxicity rating ABUTH ([13]; 63 g ai/ha): 100 | phytotoxicity rating ABUTH ([13]; 250 g ai/ha): 100 | phytotoxicity rating CHEAL ([14]; 63 g ai/ha): 80 | phytotoxicity rating CHEAL ([14]; 250 g ai/ha): 90 | phytotoxicity rating IPOHE ([15]; 63 g ai/ha): 100 | phytotoxicity rating IPOHE ([15]; 250 g ai/ha): 100 | phytotoxicity rating SORHA ([16]; 63 g ai/ha): 0 | phytotoxicity rating SORHA ([16]; 250 g ai/ha): 30 | phytotoxicity rating CASOB ([17]; 63 g ai/ha): 80 | phytotoxicity rating CASOB ([17]; 250 g ai/ha): 80 | phytotoxicity rating AMBEL ([18]; 63 g ai/ha): 100 | phytotoxicity rating AMBEL ([18]; 250 g ai/ha): 100 | phytotoxicity rating DIGSA ([19]; 63 g ai/ha): 0 | phytotoxicity rating DIGSA ([19]; 250 g ai/ha): 10 | phytotoxicity rating ECHCG ([20]; 63 g ai/ha): 10 | phytotoxicity rating ECHCG ([20]; 250 g ai/ha): 30 | phytotoxicity rating SETVI ([21]; 63 g ai/ha): 70 | phytotoxicity rating SETVI ([21]; 250 g ai/ha): 100 | phytotoxicity rating AMARE ([22]; 63 g ai/ha): 100 | phytotoxicity rating AMARE ([22]; 250 g ai/ha): 100 | Pre-emerge Herbicidal Activity, phytotoxicity rating (0-100), AMARE ([23]; 63 g ai/ha): 100 | Pre-emerge Herbicidal Activity, phytotoxicity rating (0-100), AMARE ([23]; 250 g ai/ha): 100

COc1c(Cl)cc(F)c(-n2c(=O)cc(C(F)(F)F)n(C)c2=O)c1NC(=O)Cc1ccccc1 [2-151]
phytotoxicity rating RICE (crop damage) ([1]; 63 g ai/ha): 0 | phytotoxicity rating RICE (crop damage) ([1]; 250 g ai/ha): 30 | phytotoxicity rating CORN (crop damage) ([2]; 63 g ai/ha): 0 | phytotoxicity rating CORN (crop damage) ([2]; 250 g ai/ha): 30 | RICE phytotoxicity rating (crop damage) ([3]; 63 g ai/ha): 0 | RICE phytotoxicity rating (crop damage) ([3]; 250 g ai/ha): 10 | CORN phytotoxicity rating (crop damage) ([4]; 63 g ai/ha): 0 | CORN phytotoxicity rating (crop damage) ([4]; 250 g ai/ha): 0 | phytotoxicity rating ABUTH ([5]; 63 g ai/ha): 30 | phytotoxicity rating ABUTH ([5]; 250 g ai/ha): 100 | phytotoxicity rating CHEAL ([6]; 63 g ai/ha): 0 | phytotoxicity rating CHEAL ([6]; 250 g ai/ha): 80 | phytotoxicity rating IPOHE ([7]; 63 g ai/ha): 0 | phytotoxicity rating IPOHE ([7]; 250 g ai/ha): 40 | phytotoxicity rating SORHA ([8]; 63 g ai/ha): 0 | phytotoxicity rating SORHA ([8]; 250 g ai/ha): 40 | phytotoxicity rating CASOB ([9]; 63 g ai/ha): 0 | phytotoxicity rating CASOB ([9]; 250 g ai/ha): 70 | phytotoxicity rating DIGSA ([10]; 63 g ai/ha): 0 | phytotoxicity rating DIGSA ([10]; 250 g ai/ha): 40 | phytotoxicity rating ECHCG ([11]; 63 g ai/ha): 0 | phytotoxicity rating ECHCG ([11]; 250 g ai/ha): 0 | phytotoxicity rating SETVI ([12]; 63 g ai/ha): 0 | phytotoxicity rating SETVI ([12]; 250 g ai/ha): 0 | ABUTH phytotoxicity rating ([13]; 63 g ai/ha): 0 | ABUTH phytotoxicity rating ([13]; 250 g ai/ha): 50 | CHEAL phytotoxicity rating ([14]; 63 g ai/ha): 10 | CHEAL phytotoxicity rating ([14]; 250 g ai/ha): 10 | IPOHE phytotoxicity rating ([15]; 63 g ai/ha): 30 | IPOHE phytotoxicity rating ([15]; 250 g ai/ha): 100 | SORHA phytotoxicity rating ([16]; 63 g ai/ha): 0 | SORHA phytotoxicity rating ([16]; 250 g ai/ha): 0 | CASOB phytotoxicity rating ([17]; 63 g ai/ha): 10 | CASOB phytotoxicity rating ([17]; 250 g ai/ha): 50 | AMBEL phytotoxicity rating ([18]; 63 g ai/ha): 20 | AMBEL phytotoxicity rating ([18]; 250 g ai/ha): 30 | DIGSA phytotoxicity rating ([19]; 63 g ai/ha): 0 | DIGSA phytotoxicity rating ([19]; 250 g ai/ha): 0 | ECHCG phytotoxicity rating ([20]; 63 g ai/ha): 0 | ECHCG phytotoxicity rating ([20]; 250 g ai/ha): 0 | SETVI phytotoxicity rating ([21]; 63 g ai/ha): 0 | SETVI phytotoxicity rating ([21]; 250 g ai/ha): 0 | AMARE phytotoxicity rating ([22]; 63 g ai/ha): 10 | AMARE phytotoxicity rating ([22]; 250 g ai/ha): 20 | phytotoxicity rating AMARE ([23]; 63 g ai/ha): 0 | phytotoxicity rating AMARE ([23]; 250 g ai/ha): 0
